Source: the NIST ThermoML archive (doi:10.1016/j.jct.2018.11.014)

Test: molar heat capacity at constant pressure
Settings: 101.33 kPa, Crystal, Vacuum adiabatic calorimetry

O=C(CO)[C@@H](O)[C@@H](O)[C@H](O)CO [D-(-)-tagatose]
Settings	molar heat capacity at constant pressure [J/K/mol]
110.79 K	86.05
112.05 K	87.01
113.37 K	88.06
114.74 K	89.11
116.09 K	90.16
117.44 K	91.23
118.77 K	92.2
120 K	93.18
120.13 K	93.3
121.52 K	94.39
122.9 K	95.4
124.27 K	96.48
125.63 K	97.47
127.06 K	98.59
128.55 K	99.75
130 K	100.79
130.03 K	100.83
131.5 K	101.97
132.96 K	103.07
134.45 K	104.19
135.97 K	105.29
137.47 K	106.45
138.97 K	107.56
140 K	108.3
140.45 K	108.68
141.96 K	109.8
143.5 K	110.93
145.03 K	112.09
146.55 K	113.1
148.1 K	114.27
149.72 K	115.49
150 K	115.72
151.43 K	116.75
153.17 K	118.02
154.9 K	119.31
156.62 K	120.56
158.37 K	121.84
160 K	123.1
160.14 K	123.23
161.94 K	124.54
163.76 K	125.92
165.57 K	127.19
167.41 K	128.53
169.28 K	129.9
170 K	130.45
171.14 K	131.27
172.99 K	132.6
174.82 K	134.01
176.68 K	135.37
178.57 K	136.72
180 K	137.8
180.49 K	138.21
182.43 K	139.62
184.37 K	141.02
186.33 K	142.53
188.32 K	143.96
190 K	145.19
190.29 K	145.43
192.26 K	146.89
194.22 K	148.2
196.2 K	149.78
198.21 K	151.32
200 K	152.62
200.21 K	152.77
202.19 K	154.24
204.24 K	155.8
206.37 K	157.27
208.53 K	159.03
210 K	160.09
210.68 K	160.61
212.82 K	162.18
214.94 K	163.84
217.1 K	165.39
219.28 K	167.07
220 K	167.61
221.45 K	168.71
223.6 K	170.37
225.82 K	171.99
228.13 K	173.74
230 K	175.16
230.48 K	175.53
232.81 K	177.33
235.13 K	179.15
237.48 K	180.87
239.92 K	182.64
240 K	182.74
242.39 K	184.45
244.84 K	186.37
247.28 K	188.22
249.7 K	190.03
250 K	190.36
252.15 K	192.06
254.63 K	194.03
257.1 K	195.94
259.55 K	197.81
260 K	198.11
261.98 K	199.73
264.45 K	201.55
266.94 K	203.51
269.42 K	205.41
270 K	206.1
271.88 K	207.63
274.33 K	209.55
276.81 K	211.93
279.31 K	213.91
280 K	214.24
281.79 K	215.77
284.26 K	217.69
286.73 K	219.65
289.21 K	221.51
290 K	222.17
291.73 K	223.31
294.22 K	225.32
296.71 K	227.47
298.15 K	228.55
299.18 K	229.22
300 K	229.99
301.76 K	231.28
304.46 K	233.53
307.14 K	235.53
309.81 K	237.67
310 K	237.81
312.46 K	239.92
315.14 K	241.99
317.84 K	244.2
320 K	245.73
320.53 K	246.19
323.2 K	248.11
325.86 K	250.28
328.54 K	252.68
330 K	253.86
331.25 K	254.96
